In patent US6756054B1, “Polycationic sterol derivatives as transfection agents” (IC-VEC Limited, priority 1996, dated 2004):

Assays:
CFT1 cells = assay: in vitro transfection of CFT1 cells with pCF1-βGal plasmid by cationic liposomes (DC-Chol analogue/DOPE), β-galactosidase expression; format: cell-based; settings: for rank of DC-Chol analogues for in vitro gene delivery: most effective triamine, tetramine and pentamine; for gene delivery efficiency in vitro over and above DC-Chol/DOPE liposomes: pCF1-βGal plasmid, liposomes with DOPE, relative to DC-Chol/DOPE liposomes formulated in a similar way (FIG. 24)
Method: FIG. 23 is an example of in vitro optimisation of pCF1-βGal plasmid transfection of CFT1 cells in vitro using complexes of pCF1-βGal and cationic liposomes formulated from DC-Chol analogue 8f′ and DOPE 2 (1:1) molar ratio. CFT1 cells were transfected with an array of different cationic liposome and plasmid ratios in a 96-well plate. The extent of transfection in each well was determined after 2 days by measuring the levels of β-galactosidase expression. Plasmid DNA concentration is expressed as the concentration of nucleotides assuming an average nucleotide FWt of 330. Cationic liposome concentration is expressed in terms of the concentration of the constituent DC-Chol analogue 8f′ alone.
FIG. 24 presents rank order of DC-Chol polyamine analogues transfecting CFT1 cells in vitro with the pCF1-βGal plasmid. Gene delivery activity is expressed as a proportion of the activity measured with standard liposomes containing DC-Chol 1 and DOPE 2. The data shown are the averages of four separate experiments, each performed in triplicate.
The ratios in curved brackets refer to the DC-Chol analogue:DOPE 2 molar ratio used to formulate the liposomes. The numbers in square brackets refer to compound serial numbers. Where appropiate DC-Chol analogue name abbreviations are also included (see experimental).
(§1) The ability of cationic liposomes containing the different DC-Chol polyamine analogues to mediate gene delivery was analysed both in vitro and in vivo. Cationic liposomes were formulated by hydrating a dried lipid film, containing DC-Cholanalogue and DOPE 2 in an appropriate molar ratio of either 1:0, 1:1, 1:2 or 2:1 respectively. and vortex mixing.^[32] Cationic liposome/plasmid DNA complexes were then prepared by adding appropriately diluted cationic liposome suspensions into equal volumes of aqueous plasmid DNA solutions at 30° C. and allowing the mixture to equilibrate to ambient temperature over 15 min.^[32] In vitro studies were then performed with immortalised cystic fibrosis airway epithelial (CFT1) cells followed by in vivo studies in which cationic liposome/plasmid DNA complexes were instilled intranasally into the lungs of female BALB/c mice.^[32] Typically, cationic liposome gene delivery was first optimised in vitro so as to establish the best molar ratio of cationic liposome to plasmid DNA (DNA concentration was expressed as nucleotide concentration) as well as the best absolute quantities of both, as illustrated (FIG. 23). This optimised combination was then tested in vivo. The in vitro results are shown (FIG. 24). […] The analogues were 8a′, 8b′, 8e′, 8f′, 13a′ and 17b′, the first four being triamines, the fifth a tetramine and the sixth a pentamine. With one exception, 8f′, these polyamine analogues contain inter-nitrogen methylene group spacings not normally associated with the natural polyamines spermidine 18′ (see for example FIG. 29), spermine 19′ (see for example FIG. 29) and pentamine 20′ (see for example FIG. 29) upon which these structures are based. In vivo (FIG. 25), the best DC-Chol analogues were 13c′, 13f′ and especially 17a′. Both 17a′ and 13c′ also contain unnatural methylene group spacings.
For the in vitro and in vivo tests, a dried lipid film containing the given DC-Chol analogue and DOPE 2 (in either a 1:0, 1:1, 1:2 or 2:1 respective molar ratio), was hydrated for 10 min in sterile pyrogen-free water and then liposomes were produced by 2 min vortex mixing. The average diameter was between 200-400 nm.^[32] Cationic liposomes containing DC-Chol 1 and DOPE 2 were formulated in the same way described previously.^[24, 36]
Cationic liposome/plasmid DNA complexes were then prepared as follows.
Both cationic liposome suspensions and DNA (either pCF1-βGal plasmid expressing β-galactosidase or pCF1-CAT expressing chloramphenicol acetyl transferase)^[32] solutions were separately pre-incubated for 5 min at 30° C., before being diluted to the appropriate final concentrations and then combined. […]

[1] = reported; cited from earlier work
[2] = tested on: lungs of female BALB/c mice; assay: in vivo transfection of mouse lung with pCF1-CAT plasmid by intranasally instilled cationic liposome/DNA complexes, CAT activity in lung homogenates; settings: for rank of DC-Chol analogues for in vivo gene delivery: female BALB/c mice lung, pCF1-CAT plasmid, optimal formulation, CAT activity after 2 days (FIG. 25)
Method: FIG. 25 presents the rank order of DC-Chol polyamine analogues transfecting the lungs of female BALB/c mice with the pCF1-CAT plasmid. Mice were instilled with a solution of the plasmid (4 mM nucleotide concentration) and the optimal quantity and ratio of cationic liposome, in a total volume of 100 μl. Gene delivery activity was determined as a function of chloramphenicol acetyl transferase activity in lung homogenates after 2 days.
Data points were from separate experiments with each optimal formulation tested in 4 BALB/c mice. The ratios in curved brackets refer to the DC-Chol analogue:DOPE 2 molar ratio. The numbers in square brackets refer to compound serial numbers. Where appropiate DC-Chol analogue name abbreviations are also included (see experimental).
as §1, with “spacings. […]” for “spacings.”

[3] = mouse lung, pCF1-CAT plasmid (FIG. 25)

Molecule	rank of DC-Chol analogues for in vitro gene delivery (CFT1 cells)	gene delivery efficiency in vitro over and above DC-Chol/DOPE liposomes (CFT1 cells)	rank of DC-Chol analogues for in vivo gene delivery [2]	other results
CC(C)CCCC(C)C1CCC2C3CC=C4CC(OC(=O)NCCCNCCCN)CCC4(C)C3CCC12C (centres unmarked) [8e′, 4-aza-N′-cholesteryloxycarbonyl-1,7-heptanediamine]	most effective	significant improvements		
CCCCCCCCCCCCOCC(C[N+](C)(C)CCCN)OCCCCCCCCCCCC.[Br-] (centres unmarked) [GAP-DLRIE, (B1)-N-(3-aminopropyl)-N,N-dimethyl-2,3-bis-(dodecyloxy)-1-propanaminium bromide]				in vivo efficacy relative to plasmid DNA alone [1]: about 100 fold
N^10-cholesteryloxycarbonyl-4,8,13-triaza-1,16-hexadecanediamine [17b′]	most effective	significant improvements		
N^15-cholesteryloxycarbonyl-3,7,12-triaza-1,15-pentadecanediamine [17a′]			best and most effective	effectiveness in mouse lung relative to DC-Chol 1 [2, 3]: about 100 fold; effectiveness in mouse lung relative to plasmid DNA alone [2, 3]: approx 500 fold
CC(C)CCCC(C)C1CCC2C3CC=C4CC(OC(=O)NCCCNCCCCNCCCN)CCC4(C)C3CCC12C (centres unmarked) [13f′, N^1-cholesteryloxy-carbonyl-4,9-diaza-1,12-dodecanediamine]			best and most effective	
CC(C)CCC[C@@H](C)[C@H]1CC[C@H]2[C@@H]3CC=C4C[C@@H](OC(=O)NCCNCCCNCCN)CC[C@]4(C)[C@H]3CC[C@]12C [13a′, N′-cholesteryloxy-carbonyl-3,7-diaza-1,9-nonanediamine]	most effective	significant improvements		
